Results: US11358987B2, “Albicidin derivatives, their use and synthesis” (priority 2018, dated 2022)
Values after ≈ are worked out from the molar mass of the structure shown. Like-named read-outs stand apart in the source and are kept apart here.

Legend:
Assay in all cases: Microdilution assay, MIC determination (CLSI M07-A9)
Assay type in all cases: cell-based
S. typhimurium TA100 = settings: Salmonella enterica, 20 h
Protocol: (§1) E. coli DSM 1116; E. coli BW25113; S. typhimurium TA100; Bacillus subtilis DSM10; M. phlei DSM750 and Micrococcus luteus DSM1790
(§2) The tests were performed using the micro dilution method.
(§3) The determination of MIC values was performed according to the ninth edition of the Approved Standard M07-A9 (CLSI. Methods for Dilution Antimicrobial Susceptibility Tests for Bacteria That Grow Aerobically; Approved Standard-Ninth Edition. CLSI document M07-A9. Wayne, Pa.: Clinical and Laboratory Standards Institute; 2012.)
(§4) The test was carried out for the six different bacterial strains 20 μL of cryo stock of each strain were inoculated in 20 mL of LB media (Lysogeny broth: 10 g/L peptone, 5 g/L yeast extract, 5 g/L NaCl) followed by incubation over night at 37° C., 200 rpm. The test inoculum was adjusted by the 0.5 McFarland Standard (OD625 from 0.08 to 0.1). Within 15 min of preparation, the adjusted inoculum suspension was diluted in MHBII media (BBL™ Mueller-Hinton Broth II, Becton, Dickinson and Company, New Jersey/USA) so that each well contained approximately 5×10^5 CFU/mL in a final volume of 100 μL. 95 μL of the inoculum were applied per well and 5 μL of the (diluted) antibiotic substance were added.
(§5) Previously the dry antibiotic compounds were dissolved in DMSO (100%) with a concentration of 2560 μg/mL and the resulting stock solutions were further diluted in DMSO (100%). 5 μL of each antibiotic dilution were applied to the microdilution tray to reach final concentrations of 64 μg/mL to 0.008 μg/mL. One row of each well plate was left as a growth control without antibiotic substances and another row of the microdilution tray was used as sterility control (only MHB II-media). The antimicrobial effect of the solvent (DMSO) was tested by adding 5 μL DMSO to several wells without antibiotics.
(§6) Purity check and cell titer control were performed according to International Standard M07-A9 on Mueller-Hinton II Agar (Mueller Hinton II Broth, 15 g/L agar-agar).
(§7) Both microdilution trays and agar plates were incubated at 37° C. for 20 h and subsequently analyzed visually.

M. luteus DSM1790 = settings: Micrococcus luteus; M. luteus DSM1790; 37° C., 20 h, MHBII media; read-out: MIC
Protocol: as §1, §2, §3, §4, §5, §6, §7

B. subtilis DSM10 = settings: Bacillus subtilis; B. subtilis DSM10; 37° C., 20 h, MHBII media; read-out: MIC
Protocol: as §1, §2, §3, §4, §5, §6, §7

E. coli DSM1116 = settings: Escherichia coli
Protocol: as §1, §2, §3, §4, §5, §6, §7

E. coli BW25113 = settings: Escherichia coli
Protocol: as §1, §2, §3, §4, §5, §6, §7

M. phlei DSM750 = settings: Mycolicibacterium phlei; M. phlei DSM750; 37° C., 20 h, MHBII media; read-out: MIC
Protocol: as §1, §2, §3, §4, §5, §6, §7

[1] = S. typhimurium TA100, 37° C., MHBII media, read-out: MIC
[2] = E. coli DSM1116, 37° C., 20 h, MHBII media, read-out: MIC
[3] = E. coli BW25113, 37° C., 20 h, MHBII media, read-out: MIC

SMILES	MIC (S. typhimurium TA100; [1])	MIC (M. luteus DSM1790)	MIC (B. subtilis DSM10)	MIC (E. coli DSM1116; [2])	MIC (E. coli BW25113; [3])	MIC (M. phlei DSM750)	MIC (S. typhimurium TA100; TYPHIMURIUM)	MIC (E. coli DSM1116; DSM1116, 20 h)	MIC (E. coli BW25113; BW25113, 20 h)
COc1c(NC(=O)c2ccc(NC(=O)c3ccc(NC(=O)C(Cc4cnn[nH]4)NC(=O)c4ccc(NC(=O)/C(C)=C/c5ccc(O)cc5)cc4)nc3)c(OC)c2O)ccc(C(=O)O)c1O (stereo not drawn) [Compound 11]	4000 µg/mL (≈ 4520 µM)	4000 µg/mL (≈ 4520 µM)	500 µg/mL (≈ 564 µM)	1000 µg/mL (≈ 1130 µM)	500 µg/mL (≈ 564 µM)	8000 µg/mL (≈ 9030 µM)			
COc1c(NC(=O)c2ccc(NC(=O)c3ccc(NC(=O)C(Cc4cnn[nH]4)NC(=O)c4ccc(NC(=O)c5ccc(C#N)cc5)cc4)cn3)c(OC)c2O)ccc(C(=O)O)c1O (stereo not drawn) [Compound 12]	≤ 16 µg/mL	125 µg/mL (≈ 146 µM)	250 µg/mL (≈ 292 µM)	31 µg/mL (≈ 36.3 µM)	31 µg/mL (≈ 36.3 µM)	8000 µg/mL (≈ 9360 µM)			
COc1c(NC(=O)c2ccc(NC(=O)c3ccc(NC(=O)C(Cc4cnn[nH]4)NC(=O)c4ccc(NC(=O)c5ccc(C#N)cc5)cn4)cn3)c(OC)c2O)ccc(C(=O)O)c1O (stereo not drawn) [Compound 13]	4000 µg/mL (≈ 4670 µM)	63 µg/mL (≈ 73.6 µM)	125 µg/mL (≈ 146 µM)	31 µg/mL (≈ 36.2 µM)	31 µg/mL (≈ 36.2 µM)	1000 µg/mL (≈ 1170 µM)			
COc1c(NC(=O)c2ccc(NC(=O)c3ccc(NC(=O)C(Cc4cnn[nH]4)NC(=O)c4ccc(NC(=O)/C(C)=C/c5ccc(O)cc5)cn4)cn3)c(OC)c2O)ccc(C(=O)O)c1O (stereo not drawn) [Compound 14]	≤ 16 µg/mL	125 µg/mL (≈ 141 µM)	125 µg/mL (≈ 141 µM)	≤ 16 µg/mL	63 µg/mL (≈ 71 µM)	4000 µg/mL (≈ 4510 µM)			
C/C(=C\c1ccc(O)cc1)C(=O)Nc1ccc(C(=O)N[C@@H](Cc2c[nH]nn2)C(=O)Nc2ccc(C(=O)Nc3ccc(C(=O)Nc4ccc(C(=O)O)cc4)c(O)c3OC(C)C)nc2)cc1 [Compound 15]	≤ 16 µg/mL	63 µg/mL (≈ 72.6 µM)	≤ 16 µg/mL	31 µg/mL (≈ 35.7 µM)	31 µg/mL (≈ 35.7 µM)	250 µg/mL (≈ 288 µM)			
C/C(=C\c1ccc(O)cc1)C(=O)Nc1ccc(C(=O)N[C@@H](Cc2c[nH]nn2)C(=O)Nc2ccc(C(=O)Nc3ccc(C(=O)Nc4ccc(C(=O)O)cc4)c(O)c3OC(C)C)nc2)nc1 [Compound 16]	≤ 16 µg/mL	≤ 16 µg/mL	≤ 16 µg/mL	31 µg/mL (≈ 35.7 µM)	≤ 16 µg/mL	31 µg/mL (≈ 35.7 µM)			
CC(C)Oc1c(NC(=O)c2ccc(NC(=O)[C@H](Cc3c[nH]nn3)NC(=O)c3ccc(NC(=O)c4ccc(C#N)cc4)cc3)cn2)ccc(C(=O)Nc2ccc(C(=O)O)cc2)c1O [Compound 17]	≤ 16 µg/mL	125 µg/mL (≈ 149 µM)	31 µg/mL (≈ 37 µM)	31 µg/mL (≈ 37 µM)	31 µg/mL (≈ 37 µM)	500 µg/mL (≈ 597 µM)			
CC(C)Oc1c(NC(=O)c2ccc(NC(=O)[C@H](Cc3c[nH]nn3)NC(=O)c3ccc(NC(=O)c4ccc(C#N)cc4)cn3)cn2)ccc(C(=O)Nc2ccc(C(=O)O)cc2)c1O [Compound 18]	≤ 16 µg/mL	≤ 16 µg/mL	≤ 16 µg/mL	31 µg/mL (≈ 37 µM)	≤ 16 µg/mL	31 µg/mL (≈ 37 µM)			
COc1nc(C(=O)Nc2ccc(C(=O)O)nc2OC)ccc1NC(=O)c1ccc(NC(=O)[C@H](Cc2c[nH]nn2)NC(=O)c2ccc(NC(=O)/C(C)=C/c3ccc(O)cc3)cc2)cc1 [Compound 19]	500 µg/mL (≈ 585 µM)	2000 µg/mL (≈ 2340 µM)	4000 µg/mL (≈ 4680 µM)	500 µg/mL (≈ 585 µM)	1000 µg/mL (≈ 1170 µM)	8000 µg/mL (≈ 9360 µM)			
COc1c(NC(=O)c2ccc(NC(=O)[C@H](Cc3c[nH]nn3)NC(=O)c3ccc(NC(=O)/C(C)=C/c4ccc(O)cc4)cc3)cc2)ccc(C(=O)Nc2ccc(C(=O)O)nc2)c1O [Compound 20]		≥ 8000 µg/mL	≥ 8000 µg/mL	> 8000 µg/mL	> 8000 µg/mL	≥ 8000 µg/mL	125 µg/mL (≈ 149 µM)		
COc1c(NC(=O)c2ccc(NC(=O)[C@H](Cc3c[nH]nn3)NC(=O)c3ccc(NC(=O)/C(C)=C/c4ccc(O)cc4)cc3)cc2)ccc(C(=O)Nc2ccc(C(=O)O)cn2)c1O [Compound 21]	16 µg/mL (≈ 19.1 µM)	4000 µg/mL (≈ 4760 µM)	4000 µg/mL (≈ 4760 µM)			4000 µg/mL (≈ 4760 µM)		125 µg/mL (≈ 149 µM)	125 µg/mL (≈ 149 µM)
